Reference: US20070072931A1, “Pharmaceutical composition and a method for treatment of prostate cancer” (priority 2005, published 2007)
Entries after “also recorded” stand apart in the source; their conditions may differ.

Experiments:
Bcl-xl = assay: Immunoblotting of Bcl-xl expression in PC-3 cells; type: cell-based, human; conditions: 36 hrs (mahanine 3 μg/ml)
Procedure: (§1) PC-3 cells (1×10^6 cells) were incubated with complete medium. Cells were detached using cell dissociation reagent from Sigma Chemical company St Louis, Mo., USA. They were collected by centrifugation at 1500 g for 10 minutes and boiled for 5-7 minutes in sodium dodecyl sulphate (SDS) buffer (pH 6.8). Aliquots containing 60 μg total cellular protein were separated by 10% SDS-PAGE and transferred to PVDF membrane (MILIPORE, Bedford, Mass., USA). Membrane was blocked with blocking buffer for 1 hr at room temperature and probed with desired primary antibody caspase 9, Bcl-xl, pAkt/1/2/3(ser 473), anti PARP, Cytochrome C (Santa-Cruz Biotechnology, Inc. USA). Anti caspase 3 that recognizes procaspase 3 (32 kDa) and the active cleaved caspase 3 (17 kDa) (BD Biosciences, Mountainview, Calif.). Akt, cleaved caspase 9 (Cell Signaling technology, Beverly, Mass.) overnight at 4° C. followed by alkaline phosphatase conjugated secondary antibody and detection.
(§2) PC-3 cells (1×10^6 cells) were incubated with complete medium alone or with 3 μg/ml of Mahanine (MK-3) as indicated. Cells were detached using cell dissociation reagent from Sigma Chemical company St Louis, Mo., USA. The cells were collected by centrifugation at 1500 g for 10 minutes and boiled for 5-7 minutes in SDS buffer (pH 6.8). […]

caspase 3 = assay: Immunoblotting of caspase 3 activation in PC-3 cells; type: cell-based, human
Procedure: as §1, §2

PARP = assay: Immunoblotting of PARP cleavage in PC-3 cells; type: cell-based, human; conditions: 3 μg/ml
Procedure: as §1, §2

caspase 9 = assay: Immunoblotting of caspase 9 activation in PC-3 cells; type: cell-based, human; conditions: 3 μg/ml
Procedure: as §1, §2

[1] = Acute toxicity as per WHO guidelines, haematological and biochemical parameters; type: in vivo, Mice; Balb/C
Procedure: Experiments for acute toxicity were performed as per the guidelines of WHO.
Experimental subject: Mice; Balb/C Male, female; 25 gms body weight (approx).
16 mice were divided into 2 groups; 8 animals received the dosage of @2 gm/kg body weight of combined extract. Equal volume of the vehicle (DMSO) was given to 8 animals, wherein the dose was administered orally once and then animals were sacrificed and haematological parameters checked 15 days after treatment.
Experimental subject: Mice; Balb/C Male; female; 25 gms body weight (approx).
16 mice were divided into 2 groups 8 animals were received the compound @2 gm/kg body weight. Equal volume of the vehicle (DMSO) was given to 8 animals, wherein the dose was administered orally once, and then animals were sacrificed and haematological and biochemical parameters checked 15 days after treatment.
Biochemical parameters were assessed for the pure molecule mahanine. Since it is a pure molecule there is a need to see the biochemical profile, therefore we concentrated on the biochemical parameters only. The experimental procedure followed was the same as that for the combined extract described above.

Akt = assay: Immunoblotting of Akt and pAkt (ser 473) in PC-3 cells; type: cell-based, human
Procedure: as §1
PC-3 cells (1×10^6 cells) were incubated with complete medium alone or with 3 μg/ml of Mahanine (MK-3) as indicated. Cells were detached using cell dissociation reagent from Sigma Chemical company St Louis, Mo., USA. The cells were collected by centrifugation at 1500 g for 10 minutes and boiled for 5-7 minutes in SDS buffer (pH 6.8). Aliquots containing 60 μg total cellular protein were separated by 10% SDS-PAGE and transferred to PVDF membrane (MILIPORE, Bedford, Mass., USA). Membrane was blocked with blocking buffer for 1 hr at room temperature and probed with desired primary antibody caspase 9, Bcl-xl, pAkt/1/2/3(ser 473), anti PARP, Cytochrome C (Santa-Cruz Biotechnology Inc., USA). Anti-caspase 3 that recognizes procaspase 3 (32 kDa) and the active cleaved caspase 3 (17 kDa) (BD Biosciences, Mountainview, Calif.) were also used. Akt, cleaved caspase 9 (Cell Signaling Technology, Beverly, Mass.) overnight at 4° C. followed by alkaline phosphatase conjugated secondary antibody and detection.

cytochrome c = assay: Immunofluorescence of cytochrome c release in PC-3 cells; type: cell-based, human
Procedure: Cells were cultured on glass cover slips. Both control and treated cells were fixed with PBS containing 4% paraformaldehyde for 2 hrs at 4° C. The cells were permiabilized with 0.1% Triton X-100 in PBS and then incubated with rabbit polyclonal anti-cytochrome c antibody (Santa Cruz, USA, dilution 1:50) for 3 hrs followed by incubation with FITC-conjugated secondary antibody (goat anti-rabbit, Santa Cruz, 1:50) for another 1 hr with rigorous washing in all the above steps with PBS. 1 μg/ml DAPI was also added in each set. The stained cells were observed under fluorescence microscope (Olympus BX51 microscope, Tokyo, Japan) and the images were captured with Cool Snap Pro camera.

PC-3 cells = assay: Viability of PC-3 by MTT assay (CellTiter 96 AQueous One); type: cell-based, human; conditions: mahanine 1, 2, 3 μg/ml vs untreated cells
Procedure: Human prostate cancer cell line, PC-3 (PTEN-ve, androgen independent) from American Type Culture Collection, Manassas, Va., USA was used. Cells were grown in Dulbecco's Modified Eagle Medium (DMEM) supplemented with 10% Fetal Bovine Serum (FBS) and 1% antibiotic-antimycotic. Cells were cultured in 37° C. in an atmosphere of 5% CO2.
Viability of PC-3 after treatment as at the indicated times was determined by MTT assay—CellTiter 96® AQoueus One Solution Cell Proliferation Assay (Promega Corp., Madison, Wis.), as per manufacturer's protocol. Briefly, 10,000 cells were plated in triplicate in 96 well plates and incubated for 12 hrs in complete media. […] Absorbance was recorded at 490 nm with 96 well plate readers. Reference wavelength of 630 nm was used to reduce background contributed by non-specific absorbance due to cell debris. […]
Viability of PC-3 after treatment as at the indicated times was determined by MTT assay—CellTiter 96® AQoueus One Solution Cell Proliferation Assay (Promega Corp., Madison, Wis.), as per manufacturer's protocol.
Briefly, 10,000 cells were plated in triplicate in 96 well plates and incubated for 12 hrs in complete media. […] Absorbance was recorded at 490 nm with 96 well plate readers. Reference wavelength of 630 nm was used to reduce background contributed by non-specific absorbance due to cell debris.

hepatocytes = assay: Cell viability, primary culture of rat neonatal hepatocytes; type: cell-based; conditions: 9 μg/ml
Procedure: (§3) The hepatocytes from 2-day-old neonatal rats were isolated by method described previously by William E. Russell (1997) with modifications. Briefly, the livers were perfused through the portal vein with a calcium-free solution consisting of 150 mM NaCl, 2.8 mM KCl, 5.5 mM glucose, and 25 mM HEPES (pH 7.6) for 10 minutes, followed by mincing and digestion in DMEM containing 0.05% collagenase type IV for 30 minutes. The cells were centrifuged (2000 g, 10 minutes) and dispersed in DMEM enriched with 10% FBS, 1% antibiotic-antimycotic.
The hepatocytes from 2-day-old neonatal rat were isolated by method described previously by William E Russell (1997) with modifications.
as §3, with “Briefly,” for “The hepatocytes from 2-day-old neonatal rats were isolated by method described previously by William E. Russell (1997) with modifications. Briefly,”
(§4) To evaluate the specificity of mahanine, its effect on other cells in primary culture, such as, hepatocytes, cardiomyocyte and skeletal muscle was examined.

LNCaP cells = assay: Cell killing / viability of androgen dependent prostate cancer cell line LNCaP; type: cell-based; conditions: mahanine 1, 2, 3 μg/ml vs untreated cells
Procedure: FIG. 2 is a graph showing dose response of PC-3 and LNCaP cell line to mahanine. […] The dose used was 1, 2, 3 μg/ml in comparison to control untreated cells (0) in both the cell lines.

cardiomyocytes = assay: Cell viability, primary culture of rat neonatal cardiomyocytes; type: cell-based; conditions: 9 μg/ml
Procedure: (§5) The cardiomyocytes from 2-day-old neonatal rat were isolated by the method previously described by Yoshihiro Kimura (1994) with modifications. Briefly, heart was excised and minced in pre warmed (37° C.) Ads buffer (1.2M NaCl, 198 mM HEPES, 54 mM KCl, 8.3 mM MgSO4, 55.4 mM glucose, 95 mM NaH2PO4), digested in type II Collagenase 0.05% and Pancreatin in three successive digestions of 15 minutes each. Supernatant was pooled and cells palleted at 2000 g, for 10 minutes. Cells were resuspended and plated in collagen coated T-25 flasks in Medium-199 enriched with 10% FBS and 1% antibiotic-antimycotic.
as §5, with “Briefly, the” for “Briefly,”, “pre-warmed” for “pre warmed”, “3-succesive” for “three successive”, “g,” for “g, for”
as §4

skeletal muscle cells = assay: Cell viability, primary culture of neonatal rat skeletal muscle; type: cell-based; conditions: 9 μg/ml
Procedure: The skeletal muscles from 2-day-old neonatal rats were isolated by method described previously by William E. Russell (1997) with modifications. Briefly, Soleus muscle was dissected, minced and digested with 0.2% Type II Collagenase and 0.05% trypsin in PBS pH 7.4, 0.15M NaCl. The dispersed skeletal muscle cells were centrifuged (100 g, 10 minutes) washed and resuspended in PBS with 1% antibiotic-antimycotic. Cells were preincubated for 30 minutes at 37° C., 95% air/5% CO2. The floating muscle cells were plated on collagen coated T-25 flasks in DMEM enriched with 10% FBS and 1% antibiotic-antimycotic.
The skeletal muscles from 2-day-old neonatal rat were isolated by method described previously by William E. Russell (1997) with modifications.
Briefly, Soleus muscles were dissected, minced and digested with 0.2% Type II Collagenase and 0.05% trypsin in PBS, pH 7.4, 0.15M NaCl. The dispersed skeletal muscle cells were centrifuged (1000 g, 10 minutes) washed and re-suspended in PBS with 1% antibiotic-antimycotic. Cells were preincubated for 30 minutes at 37° C., 95% air/5% CO2. The floating muscle cells were plated on collagen coated T-25 flasks in DMEM enriched with 10% FBS and 1% antibiotic-antimycotic.
as §4

With mahanine the “Bcl-xl expression at 36 hrs” value (Bcl-xl) was “significantly decreased; also recorded: considerably downregulated”, the “time of peak of caspase 3 activity” value (caspase 3; PC-3 cells (mahanine 3 μg/ml)) was 60 h and the “activation of caspase 3 at 48 hrs” value (caspase 3; PC-3 cells, 48 hrs (mahanine 3 μg/ml)) was “considerably increased”. The “time of maximum cleavage of PARP (89 kDa fragment)” value (PARP) was 36 h, the “earliest time at which cleaved caspase 9 could be detected” value (caspase 9) was 6 h and the “time course of cleaved caspase 9” value (caspase 9) was “steadily increased at 12 hrs and 24 hrs, and declined at 36 hrs”. For the same substance, the “indication of toxicity in treated mice” value ([1]; Balb/C mice, 2 gm/kg orally once, 15 days after treatment) was “no indication of any toxicity”, the Creatinine ([1]; Balb/C mice, 2 gm/kg orally once, 15 days after treatment, vehicle control 3.82) was 3.72 mg/dL and the Hb ([1]; Balb/C mice, 2 gm/kg orally once, 15 days after treatment, vehicle control 10.69) was 10.713 gm/dl. The SGPT ([1]; Balb/C mice, 2 gm/kg orally once, 15 days after treatment, vehicle control 32.0) was 30.7 units/ml, the Urea ([1]; Balb/C mice, 2 gm/kg orally once, 15 days after treatment, vehicle control 35.4) was 48.6 mg/dL and the WBC ([1]; Balb/C mice, 2 gm/kg orally once, 15 days after treatment, vehicle control 92) was 89. For the same substance, the SGOT ([1]; Balb/C mice, 2 gm/kg orally once, 15 days after treatment, vehicle control 147.5) was 174.0 units/ml, the RBC ([1]; Balb/C mice, 2 gm/kg orally once, 15 days after treatment, vehicle control 1029) was 1032 and the “change in acute toxicity data until 1 month” value ([1]; mice, until 1 month) was “no change”. For the same substance, the “effect on steady state levels of Akt protein” value (Akt; PC-3 cells) was “no effect”, the “inhibition of phosphorylation of Akt” value (Akt; PC-3 cells) was “in a dose and time dependent manner” and the “time at which Akt serine 473 phosphorylation was inhibited” value (Akt; PC-3 cells (mahanine 3 μg/ml)) was 24 h. For the same substance, the “time by which Akt activation was totally blocked” value (Akt; PC-3 cells (mahanine 3 μg/ml)) was ≤ 36 h, the “leakage of cytochrome c from the mitochondria” value (cytochrome c) was “caused leakage of cytochrome c” and the “killing / apoptosis of androgen independent cell line PC-3” value (PC-3 cells) was “in a dose and time dependent manner”. The “killing / apoptosis of androgen independent cell line PC-3” value (PC-3 cells; listed as mahanine) was “in a time and dose dependent manner”, the “killing of hepatocytes in primary culture” value (hepatocytes) was “did not kill” and the “killing / apoptosis of androgen dependent cell line LNCaP” value (LNCaP cells) was “in a dose and time dependent manner”. For the same substance, the “killing of cardiomyocytes in primary culture” value (cardiomyocytes) was “did not kill” and the “killing of skeletal muscle cells in primary culture” value (skeletal muscle cells) was “did not kill”.
